Source: PubChem BioAssay AID330 (DTP/NCI, 2004)
Where “and” joins values, the source holds several entries; their conditions need not be identical. Identical values can stand only once. Toxic doses and inconclusive results are not listed. Rule for the calls: active = survival T/C of 150% or more; inactive = T/C below 125% in these data.

System: P388 leukemia ip, CD2F1 mice, survival T/C
Assay: NCI In Vivo Anticancer Drug Screen. Data for tumor model P388 Leukemia (intraperitoneal) in CD2F1 (CDF1) mice
Details: endpoint: median survival time, higher = longer survival
In short: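 Mice carrying the transplanted tumor received test compound or vehicle. Survival was recorded in each group, and the value is the treated-group measurement divided by that of the vehicle-treated control group.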

[1] = dose: 50.0 mg/kg/injection, schedule: Q04DX003 (ip), vehicle: saline with Tween-80
[2] = dose: 50.0 mg/kg/injection, schedule: Q01DX005 (ip), vehicle: Klucel (hydroxypropylcellulose) (HPC)
[3] = dose: 100.0 mg/kg/injection, schedule: Q01DX005 (ip), vehicle: Klucel (hydroxypropylcellulose) (HPC)
[4] = dose: 200.0 mg/kg/injection, schedule: Q01DX005 (ip), vehicle: Klucel (hydroxypropylcellulose) (HPC)
[5] = dose: 100.0 mg/kg/injection, schedule: Q04DX003 (ip), vehicle: Klucel (hydroxypropylcellulose) (HPC)
[6] = dose: 200.0 mg/kg/injection, schedule: Q04DX003 (ip), vehicle: Klucel (hydroxypropylcellulose) (HPC)
[7] = dose: 400.0 mg/kg/injection, schedule: Q04DX003 (ip), vehicle: Klucel (hydroxypropylcellulose) (HPC)
[8] = dose: 50.0 mg/kg/injection, schedule: Q01DX005 (ip), vehicle: saline with Tween-80
[9] = dose: 100.0 mg/kg/injection, schedule: Q01DX005 (ip), vehicle: saline with Tween-80
[10] = dose: 200.0 mg/kg/injection, schedule: Q01DX005 (ip), vehicle: saline with Tween-80
[11] = dose: 50.0 mg/kg/injection, schedule: Q01DX009 (ip), vehicle: saline with Tween-80
[12] = dose: 100.0 mg/kg/injection, schedule: Q01DX009 (ip), vehicle: saline with Tween-80
[13] = dose: 200.0 mg/kg/injection, schedule: Q01DX009 (ip), vehicle: saline with Tween-80
[14] = dose: 25.0 mg/kg/injection, schedule: Q01DX009 (ip), vehicle: saline with Tween-80
[15] = dose: 50.0 mg/kg/injection, schedule: Q01DX009 (ip), vehicle: Klucel (hydroxypropylcellulose) (HPC)
[16] = dose: 60.0 mg/kg/injection, schedule: Q01DX005 (ip), vehicle: saline with Tween-80
[17] = dose: 120.0 mg/kg/injection, schedule: Q01DX005 (ip), vehicle: saline with Tween-80
[18] = dose: 240.0 mg/kg/injection, schedule: Q01DX005 (ip), vehicle: saline with Tween-80
[19] = dose: 400.0 mg/kg/injection, schedule: Q01DX009 (ip), vehicle: saline with Tween-80

Measured: T/C

N#C/C(=C\c1cccc2ccccc12)c1ccc(Cl)cc1
inactive: [1] 94 % of control | dose: 100.0 mg/kg/injection, schedule: Q04DX003 (ip), vehicle: saline with Tween-80 97 % of control | dose: 200.0 mg/kg/injection, schedule: Q04DX003 (ip), vehicle: saline with Tween-80 103 % of control | dose: 400.0 mg/kg/injection, schedule: Q04DX003 (ip), vehicle: saline with Tween-80 97 % of control

O=C(O)c1cc(Br)ccc1OCc1cccc(Cl)c1
inactive: dose: 25.0 mg/kg/injection, schedule: Q04DX003 (ip), vehicle: saline with Tween-80 101 % of control | [1] 98 % of control

C=CC1(OC)CC1C(=O)OCC (stereo not drawn)
inactive: dose: 43.0 mg/kg/injection, schedule: Q01DX005 (ip), vehicle: Klucel (hydroxypropylcellulose) (HPC) 99 % of control | dose: 86.0 mg/kg/injection, schedule: Q01DX005 (ip), vehicle: Klucel (hydroxypropylcellulose) (HPC) 112 % of control | dose: 172.0 mg/kg/injection, schedule: Q01DX005 (ip), vehicle: Klucel (hydroxypropylcellulose) (HPC) 97 % of control

COc1cc2c[n+](C)c3c4cc(OC)c(OC)cc4c(O)cc3c2cc1OC
inactive: [2] 99 % of control | [3] 97 % of control | [4] 99 % of control

CC1C2=C(CCCC2=O)O/C1=N\O (stereo not drawn)
inactive: [5] 96 % of control | [6] 90 % of control | [7] 93 % of control

COc1ccc(N=C(CC(C)C)C2C(=O)c3ccccc3C2=O)cc1
inactive: [2] 100 % of control | [3] 109 % of control | [4] 104 % of control

O/N=C1/CCC/C(=N/O)C1
inactive: [8] 100 % of control | [9] 98 % of control | [10] 107 % of control

CCOC(=O)C(C#N)(CCC(=NC(C)(C)C)Nc1c(Cl)cccc1Cl)CCC(=NC(C)(C)C)Nc1c(Cl)cccc1Cl (stereo not drawn)
inactive: [11] 105 % of control | [12] 101 % of control | [13] 92 % of control

COC(=O)c1c(C(=O)OC)c(Nc2ccccc2)c2ccccc2c1O
inactive: dose: 3.12 mg/kg/injection, schedule: Q01DX005 (ip), vehicle: Klucel (hydroxypropylcellulose) (HPC) 115 % of control | dose: 6.25 mg/kg/injection, schedule: Q01DX005 (ip), vehicle: Klucel (hydroxypropylcellulose) (HPC) 107 % of control | dose: 12.5 mg/kg/injection, schedule: Q01DX005 (ip), vehicle: Klucel (hydroxypropylcellulose) (HPC) 99 % of control

C[N+](C)(C)CCC(=O)c1ccco1
inactive: dose: 6.25 mg/kg/injection, schedule: Q01DX009 (ip), vehicle: saline 117 % of control | dose: 12.5 mg/kg/injection, schedule: Q01DX009 (ip), vehicle: saline 117 % of control | [14] 111 % of control | dose: 25.0 mg/kg/injection, schedule: Q01DX009 (ip), vehicle: saline 106 % of control

CCOC(=O)c1c(Cl)c(Cl)c(C(=O)OCC)c(Cl)c1Cl
inactive: dose: 100.0 mg/kg/injection, schedule: Q04DX003 (ip), vehicle: saline sonified 100 % of control | dose: 200.0 mg/kg/injection, schedule: Q04DX003 (ip), vehicle: saline sonified 100 % of control | dose: 400.0 mg/kg/injection, schedule: Q04DX003 (ip), vehicle: saline sonified 100 % of control

CCB(CC)OC1OC(C2COB(CC)O2)C2OB(CC)OC12 (stereo not drawn)
inactive: [8] 103 % of control | [9] 95 % of control | [10] 101 % of control

COc1cccc(-n2c(=S)[nH]c3ccccc3c2=O)c1
inactive: [8] 93 % of control | [9] 87 % of control | [10] 89 % of control

O=C1C(=O)N(c2cccc(Cl)c2)C(=O)N1Cc1ccccc1
inactive: [15] 98 % of control | dose: 100.0 mg/kg/injection, schedule: Q01DX009 (ip), vehicle: Klucel (hydroxypropylcellulose) (HPC) 104 % of control | dose: 200.0 mg/kg/injection, schedule: Q01DX009 (ip), vehicle: Klucel (hydroxypropylcellulose) (HPC) 104 % of control

CS/C(=C1/C(=O)N(c2ccccc2)N=C1c1ccc(Cl)cc1)N1CC1
inactive: dose: 25.0 mg/kg/injection, schedule: Q04DX003 (ip), vehicle: Klucel (hydroxypropylcellulose) (HPC) 96 % of control | dose: 50.0 mg/kg/injection, schedule: Q04DX003 (ip), vehicle: Klucel (hydroxypropylcellulose) (HPC) 99 % of control | [5] 99 % of control | [6] 99 % of control | [7] 91 % of control

CS(=O)(=O)N1COC(=O)[C@@H]1c1ccccc1
inactive: [16] 100 % of control | [17] 101 % of control | [18] 101 % of control

O=C1CN(c2ccccc2)C(=O)CN1Nc1ccccc1
inactive: [11] 93 % of control | [12] 93 % of control

CCCCNc1ccc2nnc(C)n2n1
inactive: [2] 103 % of control | dose: 100.0 mg/kg/injection, schedule: Q01DX005 (ip), vehicle: DMSO 98 % of control | [3] 108 % of control | dose: 200.0 mg/kg/injection, schedule: Q01DX005 (ip), vehicle: DMSO 104 % of control | [4] 100 % of control

Nc1cc(NC=O)ncn1
inactive: [14] 102 % of control | [11] 105 % of control | [12] 102 % of control

O=c1[nH]c2c(cnn2-c2ccc(Cl)cc2)c(=O)n1-c1cccc(Cl)c1
inactive: dose: 12.5 mg/kg/injection, schedule: Q01DX009 (ip), vehicle: Klucel (hydroxypropylcellulose) (HPC) 88 % of control | dose: 25.0 mg/kg/injection, schedule: Q01DX009 (ip), vehicle: Klucel (hydroxypropylcellulose) (HPC) 94 % of control | [15] 100 % of control

CN(CCl)S(=O)(=O)c1ccccc1
inactive: [12] 90 % of control | [13] 100 % of control | [19] 105 % of control

CC(O)C(NC(=O)OCC1c2ccccc2-c2ccccc21)C(=O)O (stereo not drawn)
inactive: [2] 104 % of control | [3] 100 % of control | [4] 107 % of control

O=c1[nH]c(=S)[nH]nc1/C=C/c1cccc(I)c1
inactive: dose: 12.5 mg/kg/injection, schedule: Q04DX002 (ip), vehicle: saline 100 % of control | dose: 25.0 mg/kg/injection, schedule: Q04DX002 (ip), vehicle: saline 100 % of control | dose: 50.0 mg/kg/injection, schedule: Q04DX002 (ip), vehicle: saline 100 % of control | dose: 200.0 mg/kg/injection, schedule: Q04DX002 (ip), vehicle: saline 106 % of control

CC1(C)COC(c2cccc3c2C2C=CC3O2)=N1 (stereo not drawn)
inactive: [16] 92 % of control | [17] 97 % of control | [18] 108 % of control

CCOC1CC2C(=O)C(CC)=C(OC)CC2(CC)CO1 (stereo not drawn)
inactive: [16] 98 % of control | [17] 99 % of control

O=C1OCC/C1=C1\CCCO1
inactive: dose: 12.5 mg/kg/injection, schedule: Q01DX009 (ip), vehicle: saline with Tween-80 112 % of control and 97 % of control | [14] 100 % of control and 102 % of control | [11] 98 % of control and 99 % of control | [12] 102 % of control and 108 % of control and 116 % of control | [13] 112 % of control | [19] 113 % of control

N#Cc1ccccc1NC(=O)Nc1ccc(Cc2ccc(NC(=O)Nc3ccccc3C#N)cc2)cc1
inactive: [16] 97 % of control | [17] 97 % of control | [18] 93 % of control
